These results are taken from patent US4066650A, “Keto-aldehyde-amine addition products and method of making same” (priority 1975, dated 1978).

Data set [1] can be described thus: in vivo. To be noted: mouse, in vivo, ip. As for the experimental part:
(§1) The biological effects of methylglyoxal maleimide ("A") and methylglyoxal glutaconic imide ("B") were determined by tests on normal (non-tumorous) and subcutaneous Sarcoma-180 tumor-bearing mice. […] The compounds were administered by intraperitoneal route and the values were calculated by standard methods (Goldin A., in Meth.Can.Res. 4, p. 193, 1968).
(§2) The test solutions were prepared by dissolving either 38.72 mg of methylglyoxal maleimide ("A") or 5278 mg of methylglyoxal glutaconic imide ("B") in 100 ml of physiological saline. The pH of the solution was adjusted to 6.0, sterilized on Millipore filtration and stored in sterile vials at about 10° C. One […] of such solutions contained 0.387 mg of compound "A" or 52.78 mg of compound "B", respectively and when injected into mice of an average weight of 26 grams the dose was equivalent to 14.884 mg/kg of the compound "A" and 2030 mg/kg of the compound "B".
(§3) Random-bred Swiss albino mice (Charles River CD-1 strain, average weight 26±3 g, females) were inocculated with 25 million Sarcoma-180 cells (in about 0.25 ml of ascitic fluid, cell age 7 days) on the right scapular region. The animals were randomized on the 4th day after the inocculation with the cancer cells, placed in separate test groups of 10 mice per group (5 mice/cage) and weighed.
(§4) The compositions were injected at different dose levels, each dose being double the next-lower dose, with three test groups (30 mice) for each dose level. The injection was effected intraperitoneally into normal and tumor-bearing mice, starting on the fourth day after the inocculation with cancer, once daily for ten consecutive days. The volume of the injection at each dose level was brought up to 1.0 ml with saline. A proper number of normal and tumorous mice was treated with saline solution in the same manner, frequency and volume as a control experiment. The body weight change and mortality (acute toxicity) were recorded daily.

In data set [2] the test system is Sarcoma-180 tumor-bearing mice. In words: in vivo. To be noted: mouse, in vivo, ip. As for the experimental part:
as §1, §2, §3, §4

Data set [3] is described as follows: in vivo. To be noted: mouse, in vivo, ip. As to the method:
as §1
(§5) A thirty-day survival test was carried out with normal mice to determine any possible delayed toxicity.
as §2
(§6) Normal, non-tumor-bearing mice of the same strain, sex and weight were also randomized and placed in separate test groups.
(§7) The compositions were injected at different dose levels, each dose being double the next-lower dose, with three test groups (30 mice) for each dose level. The injection was effected intraperitoneally into normal and tumor-bearing mice, starting on the fourth day after the inocculation with cancer, once daily for ten consecutive days. […] A proper number of normal and tumorous mice was treated with saline solution in the same manner, frequency and volume as a control experiment. The body weight change and mortality (acute toxicity) were recorded daily.
(§8) A number of normal animals treated with the drugs in the same manner as the tumorous ones were also sacrificed on the eleventh day, and their organs were collected for histological examination.
The source holds these as a separate data set.

Data set [4] concerns normal (non-tumorous) mice. Briefly: Acute toxicity (mortality), body weight change and 30-day survival in normal mice. To be noted: for Δ body wt: mouse, in vivo, ip. As to the method:
as §1, §5, §2, §6, §7, §8

Data set [5] deals with Sarcoma-180. Briefly: Anti-tumor action on subcutaneous Sarcoma-180 in mice. Type of data set: in vivo, Swiss albino mice (Charles River CD-1 strain). Set-up: ED: unit not given here. The settings on record: for ED: tumorous mice. As for the experimental part:
On the eleventh day (tumer age 14 days) the test and control mice were sacrificed, the tumor or tumorous area was cut out, weighed and stored in formaldehyde for histological examination. At the same time the liver, kidneys, spleen, heart, and a piece of the small intestine were collected and stored in formaldehyde for histopathological evaluation of the effect of the drugs on these tissues and organs.
The anti-neoplastic action of the drugs was assayed by comparison of the tumor weight present in treated and control animals and expressed as the percent of controls average weight (T/C%). The presence of malignancy in the tumors or tumor-areas of the treated animals was verified by histological examination.
The reabsorption of tissue, formed between the inocculation of the cancer cells and the onset of the treatment is relatively slow. Treated animals even under strong cancerostatic action of the drugs show a small quantity (100-200 mg) of tissue in the area where the tumor cells where deposited. It is therefore difficult to tell the nature of these residual tissues by macroscopic examination. Most of these residual "lumps" are made up of connective tissues and necrotic, scar tissues. If it were regarded as neoplasia without histological examination the T/C% calculation would give an erratic result in the evaluation of the anti-cancer action of the compound. Histological examination of these "lumps" therefore is exceedingly important in order to arrive at a valid evaluation of the effectiveness of the drugs especially in short-term experiments (10 days) as carried out in the present assays.

Data set [6] is described as follows: Water solubility. Type of data set: physicochemical.

On to `CC(=O)C(O)N1C(=O)C=CCC1=O` (stereo not shown) [Methylglyoxal-glutaconic imide, N'-(2-keto-propane-1-ol)-2,6-dioxopyridine], for which the mortality at 240 h in data set [1] (63.5 mg/kg) was determined as 0%; in data set [1] (127 mg/kg), 0%; in data set [1] (254 mg/kg), 0%; in data set [1] (508 mg/kg) it was 0%; in data set [1] (1016 mg/kg), 0%; in data set [1] (2032 mg/kg), 100%. In addition, the mortality at 240 h was found to be 0% in data set [3] (63.5 mg/kg); 0% in data set [3] (127 mg/kg); 0% in data set [3] (254 mg/kg); 0% in data set [3] (508 mg/kg); 0% in data set [3] (1016 mg/kg); 100% in data set [3] (2032 mg/kg). Moreover, the Δ body wt result in data set [2] (63.5 mg/kg) was “+0.6”; in data set [2] (127 mg/kg), “+0.35”; in data set [2] (254 mg/kg) it was “+0.4”; in data set [2] (508 mg/kg), “+0.1”; in data set [2] (1016 mg/kg) it was -0.3; in data set [4] (63.5 mg/kg), “+0.55”. Moreover, the Δ body wt entry was “+0.3” in data set [4] (127 mg/kg); “+0.15” in data set [4] (254 mg/kg); -0.1 in data set [4] (508 mg/kg); -0.1 in data set [4] (1016 mg/kg); -0.4 in data set [4] (1524 mg/kg). For the same molecule, the “LD10 (maximum tolerated dose at 10% lethality)” value in data set [4] (mice, i.p. daily for 10 days) is 1310 mg;kg. Further, the “effect of reduction in the total volume of injection on mortality” value in data set [4] (mice, i.p., volume below 1.0 ml/animal/day) is given as “increase in mortality”. For the same molecule, in data set [4] (normal mice, i.p. daily for 10 days, 30 day observation), the “30 day mortality rate of all treated nontumorous animals (compared with mortality in 10 days)” value was “identical”. For the same molecule, in data set [5] (Mus musculus, Sarcoma-180, ip, 240 h, read-out: ED90 (effective dose at 90% effectiveness)), the ED90 was 210 mg/kg. The “IT (therapeutic index LD10/ED90)” value in data set [5] (mice, i.p. daily for 10 days) was 6.23. Besides, the ED was over 5 in data set [5] (63.5 mg/kg i.p. daily for 10 days); 55 in data set [5] (127 mg/kg i.p. daily for 10 days); 100 in data set [5] (254 mg/kg i.p. daily for 10 days); 100 in data set [5] (508 mg/kg i.p. daily for 10 days); 100 in data set [5] (1016 mg/kg i.p. daily for 10 days).

With `CC(=O)C(O)N1C(=O)CCC1=O` (stereo not shown) [Methylglyoxal-succinimide, N-(2-keto-propane-1ol)-2,5diketo pyrrolidine], the water solubility entry in data set [6] is reported as “high”.

The term mortality denotes the share of the test organisms that died.
